In patent US20110039721A1, “METHOD FOR PREDICTION ABOUT CARCINOGENICITY OF SUBSTANCE IN RODENT” (Chemicals Evaluation and Research Institute, priority 2007, published 2011):

Key:
rodent = settings: classification of the substance (C+/C−); cited from earlier work
liver = settings: classification of the substance (Cr+/Cr−); cited from earlier work
[1] = classification of the substance (M+/M−); cited from earlier work
[2] = tested on: mRNA expressed from the genes (A) to (D) in rat liver; test: Behavior of genes (mRNA expression level, oligo-DNA microarray) in rat liver after 28-day oral administration; type: in vivo; settings: for Behavior of gene caused by administration of chemical substance, Gene No. 4846 / Behavior of gene caused by administration of chemical substance, Gene No. 2026 / Behavior of gene caused by administration of chemical substance, Gene No. 4218 / Behavior of gene caused by administration of chemical substance, Gene No. 6182 / Behavior of gene caused by administration of chemical substance, Gene No. 5600: gene group (A); for Behavior of gene caused by administration of chemical substance, Gene No. 4846: Unigene No. Rn.144554; for Behavior of gene caused by administration of chemical substance, Gene No. 2026 / Behavior of gene caused by administration of chemical substance, Gene No. 4218: Unigene No. Rn.167075; for Behavior of gene caused by administration of chemical substance, Gene No. 6182: Unigene No. Rn.5834; for Behavior of gene caused by administration of chemical substance, Gene No. 5600: Unigene No. Rn.9836; for Behavior of gene caused by administration of chemical substance, Gene No. 1494 / Behavior of gene caused by administration of chemical substance, Gene No. 2045 / Behavior of gene caused by administration of chemical substance, Gene No. 2203: gene group (B); for Behavior of gene caused by administration of chemical substance, Gene No. 1494: Unigene No. Rn.1430; for Behavior of gene caused by administration of chemical substance, Gene No. 2045: Unigene No. Rn.19329; for Behavior of gene caused by administration of chemical substance, Gene No. 2203: Unigene No. Rn.21240; for Behavior of gene caused by administration of chemical substance, Gene No. 533 / Behavior of gene caused by administration of chemical substance, Gene No. 725 / Behavior of gene caused by administration of chemical substance, Gene No. 1163 / Behavior of gene caused by administration of chemical substance, Gene No. 4973 / Behavior of gene caused by administration of chemical substance, Gene No. 4095 / Behavior of gene caused by administration of chemical substance, Gene No. 1334 / Behavior of gene caused by administration of chemical substance, Gene No. 6620 / Behavior of gene caused by administration of chemical substance, Gene No. 6303 / Behavior of gene caused by administration of chemical substance, Gene No. 5878 / Behavior of gene caused by administration of chemical substance, Gene No. 1131 / Behavior of gene caused by administration of chemical substance, Gene No. 1562 / Behavior of gene caused by administration of chemical substance, Gene No. 1741 / Behavior of gene caused by administration of chemical substance, Gene No. 893 / Behavior of gene caused by administration of chemical substance, Gene No. 6026 / Behavior of gene caused by administration of chemical substance, Gene No. 154 / Behavior of gene caused by administration of chemical substance, Gene No. 1993 / Behavior of gene caused by administration of chemical substance, Gene No. 813 / Behavior of gene caused by administration of chemical substance, Gene No. 2494 / Behavior of gene caused by administration of chemical substance, Gene No. 2546 / Behavior of gene caused by administration of chemical substance, Gene No. 3776 / Behavior of gene caused by administration of chemical substance, Gene No. 3929 / Behavior of gene caused by administration of chemical substance, Gene No. 1119 / Behavior of gene caused by administration of chemical substance, Gene No. 6742 / Behavior of gene caused by administration of chemical substance, Gene No. 5634: gene group (C); for Behavior of gene caused by administration of chemical substance, Gene No. 533: Unigene No. Rn.106184; for Behavior of gene caused by administration of chemical substance, Gene No. 725: Unigene No. Rn.108075; for Behavior of gene caused by administration of chemical substance, Gene No. 1163: Unigene No. Rn.11766; for Behavior of gene caused by administration of chemical substance, Gene No. 4973: Unigene No. Rn.118529; for Behavior of gene caused by administration of chemical substance, Gene No. 4095: Unigene No. Rn.119024; for Behavior of gene caused by administration of chemical substance, Gene No. 1334 / Behavior of gene caused by administration of chemical substance, Gene No. 6620: Unigene No. Rn.120914; for Behavior of gene caused by administration of chemical substance, Gene No. 6303: Unigene No. Rn.123063; for Behavior of gene caused by administration of chemical substance, Gene No. 5878: Unigene No. Rn.143213; for Behavior of gene caused by administration of chemical substance, Gene No. 1131: Unigene No. Rn.144946; for Behavior of gene caused by administration of chemical substance, Gene No. 1562: Unigene No. Rn.14744; for Behavior of gene caused by administration of chemical substance, Gene No. 1741: Unigene No. Rn.1647; for Behavior of gene caused by administration of chemical substance, Gene No. 893: Unigene No. Rn.164817; for Behavior of gene caused by administration of chemical substance, Gene No. 6026: Unigene No. Rn.167685; for Behavior of gene caused by administration of chemical substance, Gene No. 154: Unigene No. Rn.185941; for Behavior of gene caused by administration of chemical substance, Gene No. 1993: Unigene No. Rn.18728; for Behavior of gene caused by administration of chemical substance, Gene No. 813: Unigene No. Rn.201760; for Behavior of gene caused by administration of chemical substance, Gene No. 2494: Unigene No. Rn.23969; for Behavior of gene caused by administration of chemical substance, Gene No. 2546: Unigene No. Rn.24561; for Behavior of gene caused by administration of chemical substance, Gene No. 3776: Unigene No. Rn.43232; for Behavior of gene caused by administration of chemical substance, Gene No. 3929: Unigene No. Rn.4620; for Behavior of gene caused by administration of chemical substance, Gene No. 1119: Unigene No. Rn.9757; for Behavior of gene caused by administration of chemical substance, Gene No. 6742: Unigene No. Rn.9779; for Behavior of gene caused by administration of chemical substance, Gene No. 5634: Unigene No. Rn.9862; for Behavior of gene caused by administration of chemical substance, Gene No. 5726: gene group (D), Unigene No. Rn.9939
How it was run: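 Male F344 SPF rats, 5 weeks old, four per group, dosed by oral gavage once daily for 28 days with test chemical or matched-volume solvent. Liver total RNA profiled on oligo-DNA microarray. Change ≥1.5-fold or ≤1/1.5 versus vehicle counted as significant if its direction matched that seen with other carcinogens.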

Clc1ccc(Cl)cc1 [TS026, 1,4-Dichlorobenzene]
Carcinogenicity (rodent): C+
Liver carcinogenicity (liver): Cr−
Mutagenicity by Ames test [1]: M−
Behavior of gene caused by administration of chemical substance, Gene No. 4846 ([2]; mRNA vs vehicle control group): −
Behavior of gene caused by administration of chemical substance, Gene No. 2026 ([2]; mRNA vs vehicle control group): −
Behavior of gene caused by administration of chemical substance, Gene No. 4218 ([2]; mRNA vs vehicle control group): −
Behavior of gene caused by administration of chemical substance, Gene No. 6182 ([2]; mRNA vs vehicle control group): −
Behavior of gene caused by administration of chemical substance, Gene No. 5600 ([2]; mRNA vs vehicle control group): −
Behavior of gene caused by administration of chemical substance, Gene No. 1494 ([2]; mRNA vs vehicle control group): +
Behavior of gene caused by administration of chemical substance, Gene No. 2045 ([2]; mRNA vs vehicle control group): −
Behavior of gene caused by administration of chemical substance, Gene No. 2203 ([2]; mRNA vs vehicle control group): −
Behavior of gene caused by administration of chemical substance, Gene No. 533 ([2]; mRNA vs vehicle control group): +
Behavior of gene caused by administration of chemical substance, Gene No. 725 ([2]; mRNA vs vehicle control group): −
Behavior of gene caused by administration of chemical substance, Gene No. 1163 ([2]; mRNA vs vehicle control group): −
Behavior of gene caused by administration of chemical substance, Gene No. 4973 ([2]; mRNA vs vehicle control group): −
Behavior of gene caused by administration of chemical substance, Gene No. 4095 ([2]; mRNA vs vehicle control group): +
Behavior of gene caused by administration of chemical substance, Gene No. 1334 ([2]; mRNA vs vehicle control group): −
Behavior of gene caused by administration of chemical substance, Gene No. 6620 ([2]; mRNA vs vehicle control group): −
Behavior of gene caused by administration of chemical substance, Gene No. 6303 ([2]; mRNA vs vehicle control group): +
Behavior of gene caused by administration of chemical substance, Gene No. 5878 ([2]; mRNA vs vehicle control group): −
Behavior of gene caused by administration of chemical substance, Gene No. 1131 ([2]; mRNA vs vehicle control group): −
Behavior of gene caused by administration of chemical substance, Gene No. 1562 ([2]; mRNA vs vehicle control group): −
Behavior of gene caused by administration of chemical substance, Gene No. 1741 ([2]; mRNA vs vehicle control group): −
Behavior of gene caused by administration of chemical substance, Gene No. 893 ([2]; mRNA vs vehicle control group): −
Behavior of gene caused by administration of chemical substance, Gene No. 6026 ([2]; mRNA vs vehicle control group): +
Behavior of gene caused by administration of chemical substance, Gene No. 154 ([2]; mRNA vs vehicle control group): −
Behavior of gene caused by administration of chemical substance, Gene No. 1993 ([2]; mRNA vs vehicle control group): −
Behavior of gene caused by administration of chemical substance, Gene No. 813 ([2]; mRNA vs vehicle control group): −
Behavior of gene caused by administration of chemical substance, Gene No. 2494 ([2]; mRNA vs vehicle control group): −
Behavior of gene caused by administration of chemical substance, Gene No. 2546 ([2]; mRNA vs vehicle control group): −
Behavior of gene caused by administration of chemical substance, Gene No. 3776 ([2]; mRNA vs vehicle control group): −
Behavior of gene caused by administration of chemical substance, Gene No. 3929 ([2]; mRNA vs vehicle control group): −
Behavior of gene caused by administration of chemical substance, Gene No. 1119 ([2]; mRNA vs vehicle control group): −
Behavior of gene caused by administration of chemical substance, Gene No. 6742 ([2]; mRNA vs vehicle control group): −
Behavior of gene caused by administration of chemical substance, Gene No. 5634 ([2]; mRNA vs vehicle control group): −
Behavior of gene caused by administration of chemical substance, Gene No. 5726 ([2]; mRNA vs vehicle control group): +

Cl.ClCc1ccccn1 [TS033, 2-Chloromethylpyridine HCl]
Carcinogenicity (rodent): C−
Liver carcinogenicity (liver): Cr−
Mutagenicity by Ames test [1]: M+
Behavior of gene caused by administration of chemical substance, Gene No. 4846 [2]: −
Behavior of gene caused by administration of chemical substance, Gene No. 2026 [2]: −
Behavior of gene caused by administration of chemical substance, Gene No. 4218 [2]: −
Behavior of gene caused by administration of chemical substance, Gene No. 6182 [2]: −
Behavior of gene caused by administration of chemical substance, Gene No. 5600 [2]: −
Behavior of gene caused by administration of chemical substance, Gene No. 1494 [2]: −
Behavior of gene caused by administration of chemical substance, Gene No. 2045 [2]: −
Behavior of gene caused by administration of chemical substance, Gene No. 2203 [2]: −
Behavior of gene caused by administration of chemical substance, Gene No. 533 [2]: −
Behavior of gene caused by administration of chemical substance, Gene No. 725 [2]: −
Behavior of gene caused by administration of chemical substance, Gene No. 1163 [2]: −
Behavior of gene caused by administration of chemical substance, Gene No. 4973 [2]: −
Behavior of gene caused by administration of chemical substance, Gene No. 4095 [2]: −
Behavior of gene caused by administration of chemical substance, Gene No. 1334 [2]: −
Behavior of gene caused by administration of chemical substance, Gene No. 6620 [2]: −
Behavior of gene caused by administration of chemical substance, Gene No. 6303 [2]: −
Behavior of gene caused by administration of chemical substance, Gene No. 5878 [2]: −
Behavior of gene caused by administration of chemical substance, Gene No. 1131 [2]: −
Behavior of gene caused by administration of chemical substance, Gene No. 1562 [2]: −
Behavior of gene caused by administration of chemical substance, Gene No. 1741 [2]: −
Behavior of gene caused by administration of chemical substance, Gene No. 893 [2]: −
Behavior of gene caused by administration of chemical substance, Gene No. 6026 [2]: −
Behavior of gene caused by administration of chemical substance, Gene No. 154 [2]: −
Behavior of gene caused by administration of chemical substance, Gene No. 1993 [2]: −
Behavior of gene caused by administration of chemical substance, Gene No. 813 [2]: −
Behavior of gene caused by administration of chemical substance, Gene No. 2494 [2]: −
Behavior of gene caused by administration of chemical substance, Gene No. 2546 [2]: −
Behavior of gene caused by administration of chemical substance, Gene No. 3776 [2]: −
Behavior of gene caused by administration of chemical substance, Gene No. 3929 [2]: −
Behavior of gene caused by administration of chemical substance, Gene No. 1119 [2]: −
Behavior of gene caused by administration of chemical substance, Gene No. 6742 [2]: −
Behavior of gene caused by administration of chemical substance, Gene No. 5634 [2]: −
Behavior of gene caused by administration of chemical substance, Gene No. 5726 [2]: −
